Ends that are not written are not given here.
The substances below were run on two peptides with a FITC label covalently attached to each other via a disulfide bridge (assay: Reductase activity of the peptides, fluorescent assay (Tomazzolli et al.)). Conditions: not given.
Type: biochemical

**Q.** “N-Acetyl-CPYCVQYIKANSKFIGITEL [Peptide 7]” was tested. Which oxidoreductase activity did it give?
**A.** Its oxidoreductase activity is “higher oxidoreductase activity than the control peptide”.

Same assay, conditions: compared with the control peptide without modified cysteine; DTT = 100% reducing activity, water = 0%

**Q.** Which oxidoreductase activity does the source give for “N-ethyl C-PYC GW YRSPFSRVV HLYR —NH2 [Peptide 24]” here?
**A.** Its oxidoreductase activity is “no oxidoreductase activity”.

**Q.** For “N-methyl C-PYC GW YRSPFSRVV HLYR —NH2 [Peptide 23]”, which oxidoreductase activity is on record?
**A.** The oxidoreductase activity was “equivalent activity as compared to the control peptide”.

**Q.** How did the oxidoreductase activity turn out when “N-acetyl C-PYC GW YRSPFSRVV HLYR —NH2 [Peptide 22]” was run?
**A.** The oxidoreductase activity was “higher oxidoreductase activity than the control peptide”.

**Q.** With “GWYRSPFSRVVHLYRCPYC-NH-methyl (GWYRSPFSRVVHLYRCPYC-NHMe; cysteine pairing not given here) [Peptide 29]” as the substance, how does the oxidoreductase activity read?
**A.** The oxidoreductase activity was “slightly higher oxidoreductase activity than the control peptide”.

**Q.** “N-Acetyl-CPYCSLQPLALEGSLQKRG (Ac-CPYCSLQPLALEGSLQKRG; not fully specified (C-terminus); printed as N-Acetyl-CPYCSLQPLALEGSLQKRG; cysteine pairing not given here) [Peptide 2]” was tested. Which oxidoreductase activity did it give?
**A.** Its oxidoreductase activity is “higher oxidoreductase activity than the control peptide”.

**Q.** With “N-propionyl C-PYC GW YRSPFSRVV HLYR —NH2 [Peptide 25]” as the substance, how does the oxidoreductase activity read?
**A.** The oxidoreductase activity was “higher oxidoreductase activity than the control peptide”.

**Q.** For “N-acetyl C-HGC GW YRSPFSRVV HLYR —NH2 [Peptide 27]”, which oxidoreductase activity is on record?
**A.** Its oxidoreductase activity is “higher activity than the control peptide”.

**Q.** For “GW YRSPFSRVV HLYR CPY-C—NH-ethyl (GWYRSPFSRVVHLYRCPYC-NHEt; cysteine pairing not given here) [Peptide 30]”, which oxidoreductase activity is on record?
**A.** Its oxidoreductase activity is “slightly higher oxidoreductase activity than the control peptide”.

Source: patent publication US20230113747A1, “IMMUNOGENIC PEPTIDES WITH AN OXIDOREDUCTASE MOTIF COMPRISING A MODIFIED CYSTEINE” (priority 2019, published 2023)
